Data from publication PMC3880798 (Clinical cancer research : an official journal of the …, 2013).
Several values for one entry are separate records, joined by “and”; a condition that tells them apart may be missing. Identical values can stand only once.

Experiments:
[1] = Plasma pharmacokinetics of OSI-930; type: in vivo, human; conditions: for concentration at 22 day / half-life / Tmax / AUC / Cmax: human, plasma
c-Kit = conditions: intact cellular systems; cited from earlier work
[2] = Phase I dose escalation: safety, tolerability, DLT and MTD
advanced solid tumors = assay: Antitumor response; type: in vivo, human
[3] = 19 evaluable patients with GIST
[4] = ovarian cancer patient, 400 mg twice a day
[5] = second ovarian cancer patient, 500 mg twice a day

O=C(Nc1ccc(OC(F)(F)F)cc1)c1sccc1NCc1ccnc2ccccc12 [OSI-930]
concentration at 22 day ([1]; oral, 800 mg, Cmin, 800 mg once a day (n = 2), day 22, steady state): 304 ng/mL | half-life ([1]; oral, 800 mg, T1/2, 800 mg once a day (n = 2), day 22, steady state): 18.1 h | Tmax ([1]; oral, 800 mg, Tmax, 800 mg once a day (n = 2), day 22, steady state): 4.1 h | AUC ([1]; oral, 1200 mg, AUCtau, 1,200 mg once a day (n = 1), day 22, steady state): 19600 ng·h/mL | Cmax ([1]; oral, 1200 mg, Cmax, 1,200 mg once a day (n = 1), day 22, steady state): 1990 ng/mL | concentration at 22 day ([1]; oral, 1200 mg, Cmin, 1,200 mg once a day (n = 1), day 22, steady state): 493 ng/mL | half-life ([1]; oral, 1200 mg, T1/2, 1,200 mg once a day (n = 1), day 22, steady state): 20.2 h | Tmax ([1]; oral, 1200 mg, Tmax, 1,200 mg once a day (n = 1), day 22, steady state): 4 h | AUC ([1]; oral, 1600 mg, AUCtau, 1,600 mg once a day (n = 3), day 22, steady state): 13000 ng·h/mL | Cmax ([1]; oral, 1600 mg, Cmax, 1,600 mg once a day (n = 3), day 22, steady state): 1070 ng/mL | concentration at 22 day ([1]; oral, 1600 mg, Cmin, 1,600 mg once a day (n = 3), day 22, steady state): 249 ng/mL | half-life ([1]; oral, 1600 mg, T1/2, 1,600 mg once a day (n = 3), day 22, steady state): 12.6 h | Tmax ([1]; oral, 1600 mg, Tmax, 1,600 mg once a day (n = 3), day 22, steady state): 6 h | half-life ([1]; oral, Terminal half-life, twice a day cohort): 2.3 to 7.1 h | Tmax ([1]; po, Time to peak plasma concentrations, once a day and twice a day cohorts): 2 to 10 h | Linearity of Cmax and AUC ([1]; once a day cohorts): linearity in Cmax and AUC in the dose range 50 to 1,200 mg, but not at 1,600 mg | Accumulation in plasma at steady state ([1]; twice a day oral administration): ~2 fold | Steady state plasma concentrations achieved ([1]; twice a day oral administration, predose concentrations days 8, 15, 22): ≤ 8 days | Potency for wild-type versus mutant c-Kit (c-Kit): equal potencies | Treatment-related AEs (number): Abdominal pain, G1–2 ([2]; 1,600 mg once a day (n = 3)): 1 | Treatment-related AEs (number): Abdominal pain, G3 ([2]; 1,600 mg once a day (n = 3)): 0 | Treatment-related AEs (number): Anorexia, G1–2 ([2]; 1,600 mg once a day (n = 3)): 2 | Treatment-related AEs (number): Anorexia, G3 ([2]; 1,600 mg once a day (n = 3)): 0 | Treatment-related AEs (number): Diarrhea, G1–2 ([2]; 1,600 mg once a day (n = 3)): 0 | Treatment-related AEs (number): Diarrhea, G3 ([2]; 1,600 mg once a day (n = 3)): 0 | Treatment-related AEs (number): Dry skin, G1–2 ([2]; 1,600 mg once a day (n = 3)): 0 | Treatment-related AEs (number): Dry skin, G3 ([2]; 1,600 mg once a day (n = 3)): 0 | Treatment-related AEs (number): Dyspepsia, G1–2 ([2]; 1,600 mg once a day (n = 3)): 0 | Treatment-related AEs (number): Dyspepsia, G3 ([2]; 1,600 mg once a day (n = 3)): 0 | Treatment-related AEs (number): Fatigue, G1–2 ([2]; 1,600 mg once a day (n = 3)): 1 | Treatment-related AEs (number): Fatigue, G3 ([2]; 1,600 mg once a day (n = 3)): 0 | Treatment-related AEs (number): Flatulence, G1–2 ([2]; 1,600 mg once a day (n = 3)): 0 | Treatment-related AEs (number): Flatulence, G3 ([2]; 1,600 mg once a day (n = 3)): 0 | Treatment-related AEs (number): Hair color changes, G1–2 ([2]; 1,600 mg once a day (n = 3)): 0 | Treatment-related AEs (number): Hair color changes, G3 ([2]; 1,600 mg once a day (n = 3)): 0 | Treatment-related AEs (number): Headache, G1–2 ([2]; 1,600 mg once a day (n = 3)): 0 | Treatment-related AEs (number): Headache, G3 ([2]; 1,600 mg once a day (n = 3)): 0 | Treatment-related AEs (number): Hypertension, G1–2 ([2]; 1,600 mg once a day (n = 3)): 0 | Treatment-related AEs (number): Hypertension, G3 ([2]; 1,600 mg once a day (n = 3)): 0 | Treatment-related AEs (number): Muscle spasms, G1–2 ([2]; 1,600 mg once a day (n = 3)): 0 | Treatment-related AEs (number): Muscle spasms, G3 ([2]; 1,600 mg once a day (n = 3)): 0 | Treatment-related AEs (number): Myalgia, G1–2 ([2]; 1,600 mg once a day (n = 3)): 0 | Treatment-related AEs (number): Myalgia, G3 ([2]; 1,600 mg once a day (n = 3)): 0 | Treatment-related AEs (number): Nausea, G1–2 ([2]; 1,600 mg once a day (n = 3)): 1 | Treatment-related AEs (number): Nausea, G3 ([2]; 1,600 mg once a day (n = 3)): 0 | Treatment-related AEs (number): Palmar-plantar erythema, G1–2 ([2]; 1,600 mg once a day (n = 3)): 0 | Treatment-related AEs (number): Palmar-plantar erythema, G3 ([2]; 1,600 mg once a day (n = 3)): 0 | Treatment-related AEs (number): Vomiting, G1–2 ([2]; 1,600 mg once a day (n = 3)): 0 | Treatment-related AEs (number): Vomiting, G3 ([2]; 1,600 mg once a day (n = 3)): 0 | DLTs observed ([2]; once a day dosing schedule, 50 to 1,600 mg): no DLTs | Treatment-related deaths ([2]; twice a day cohorts): no treatment-related deaths | Duration of disease stabilization (advanced solid tumors; 1 patient, anthracycline-resistant low-grade sarcoma, once a day): 139 weeks | Duration of RECIST stabilization of disease (advanced solid tumors; 1 patient, low-grade sarcoma, escalated from 100 to 1,200 mg once a day): 33 months | Patients with stable disease as best response (advanced solid tumors; [3]): 57.9% and 58% | RECIST PRs (advanced solid tumors; [3]): no RECIST PRs | RECIST partial or complete responses (advanced solid tumors; once a day cohorts): No RECIST partial or complete responses | Patients with stable disease as best response (advanced solid tumors; once a day cohorts, 50 to 1,600 mg): 4 of 12 | Time of confirmed RECIST PR (advanced solid tumors; [4]): 24 weeks | Time of disease progression (advanced solid tumors; [4]): 65 weeks | Time to GCIG CA125 response (advanced solid tumors; [4]): 15 weeks | Median duration of stable disease (advanced solid tumors; patients with GIST): 126 days | Further duration of GCIG CA125 response (advanced solid tumors; [5]): 12 weeks | Time to GCIG CA125 response (advanced solid tumors; [5]): 12 weeks | Patients who achieved stable disease (advanced solid tumors; twice a day cohort): 48%
